Values of other authors in patent US12064376B2, “Rho kinase inhibitor releasing implants and related methods of use” (priority 2020, dated 2024).

Experiments:
[1] = test system: Porcine corneal endothelial cells (CECs); details: 10 μM Y-27632 or 2.5 μM H-1152, 2, 24 and 48 hours
[2] = test system: monkey model of corneal endothelial cell damage
[3] = test system: rabbit model of corneal endothelial dysfunction; details: 1 mM topical, 2 drops QID three days then TID seven days
[4] = test system: human corneal endothelial cells (HCEC); details: ripasudil 0.3 to 30 μM, 48 hours, HCEC in vitro
[5] = test system: rabbit corneal endothelial damage model; details: freeze model, topical 0.4% or 0.8% drops BID or QID
[6] = test system: rabbit corneal endothelial damage model; details: scrape model
failed descemetorhexis = details: patient with failed descemetorhexis
[7] = at 1 year, MCEC and ROCK inhibitor eyes
[8] = by 24 weeks, eleven patients, 1×10^6 human CECs per 300 μL with Y-27632

C[C@@H](N)[C@H]1CC[C@H](C(=O)Nc2ccncc2)CC1 [Y-27632]
cell morphology [1]: monolayer with polygonal structure and tight junctions | migration of cells from the scratch [1]: enhanced | survival and engraftment of injected cultured endothelial cells ([2]; 5×10^5 CECs in 200 μl with ROCK inhibitor, intracameral): enhanced | adverse events ([2]; MCEC with concomitant ROCK inhibitor, intracameral injection): without adverse events such as glaucoma | corneal clarity [2, 7]: clear corneas | corneal endothelial cell density [2, 7]: 2000 cells/mm^2 | preserving corneal clarity (Fuch's corneal dystrophy; Fuch's corneal dystrophy, eye drop): effective | corneal thickening (Fuch's corneal dystrophy; Fuch's patients): decrease | efficacy by severity of corneal endothelial dysfunction (Fuch's corneal dystrophy; mild (central edema) versus severe (diffuse edema)): effective in mild cases (central edema) of corneal endothelial dysfunction, but not severe (diffuse edema) | number of patients with >500 cells/mm^2 (bullous keratopathy; [8]): 11 | number of patients with >1000 cells/mm^2 (bullous keratopathy; [8]): 10 | adverse events (bullous keratopathy; eleven patients): One case of steroid induced intraocular pressure (IOP) and no other adverse events | corneal thickness (bullous keratopathy; in all but 1 case, corneas became clear): < 630 μm

Cc1cncc2cccc(S(=O)(=O)N3CCCNC[C@@H]3C)c12 [H-1152]
cell morphology [1]: monolayer with polygonal structure and tight junctions | migration of cells from the scratch [1]: enhanced | corneal thickness versus controls [3]: less

C[C@H]1CNCCCN1S(=O)(=O)c1cccc2cncc(F)c12 [ripasudil]
DNA and endothelial cell proliferation [4]: significantly enhanced | corneal haze versus controls [5]: less hazy corneas | proliferation in treated eyes [5]: better in the ROCK inhibitor treated eyes in a dose dependent fashion | wound size versus controls [5]: smaller | treated eyes clear ([6]; day 14, control 0/6): 5/6 | corneal thickening ([6]; no change with control): ⅓ | outcome of case study (failed descemetorhexis): salvaged patient
